According to patent US10004732B2 (Novartis AG, priority 2014, dated 2018):
Read-outs that look alike come from different tables or passages of the source.

Experiments:
[1] = Microsomal clearance assay (M); conditions: intrinsic clearance in rat liver microsomes
Procedure: The experiments were performed in 96-well glass plates at 37° C. on an automated Tecan EVO platform. Test compounds at a concentration of 10 mM in pure DMSO were diluted 1:1000 in water to 10 μM. […] Reactions were initiated by the addition of 150 μL of a cofactor solution containing 2 mM NADPH.

PI 3-kinase beta [2] = molecular target: T1, PI 3-kinase beta (Homo sapiens, UniProt P42338); assay: Kinase Glo Luminescent Kinase Assay (Kglo), assay B; assay type: biochemical; conditions: read-out: Assay B PI3Kβ IC50
Target sequence in this assay (P42338 whole entry): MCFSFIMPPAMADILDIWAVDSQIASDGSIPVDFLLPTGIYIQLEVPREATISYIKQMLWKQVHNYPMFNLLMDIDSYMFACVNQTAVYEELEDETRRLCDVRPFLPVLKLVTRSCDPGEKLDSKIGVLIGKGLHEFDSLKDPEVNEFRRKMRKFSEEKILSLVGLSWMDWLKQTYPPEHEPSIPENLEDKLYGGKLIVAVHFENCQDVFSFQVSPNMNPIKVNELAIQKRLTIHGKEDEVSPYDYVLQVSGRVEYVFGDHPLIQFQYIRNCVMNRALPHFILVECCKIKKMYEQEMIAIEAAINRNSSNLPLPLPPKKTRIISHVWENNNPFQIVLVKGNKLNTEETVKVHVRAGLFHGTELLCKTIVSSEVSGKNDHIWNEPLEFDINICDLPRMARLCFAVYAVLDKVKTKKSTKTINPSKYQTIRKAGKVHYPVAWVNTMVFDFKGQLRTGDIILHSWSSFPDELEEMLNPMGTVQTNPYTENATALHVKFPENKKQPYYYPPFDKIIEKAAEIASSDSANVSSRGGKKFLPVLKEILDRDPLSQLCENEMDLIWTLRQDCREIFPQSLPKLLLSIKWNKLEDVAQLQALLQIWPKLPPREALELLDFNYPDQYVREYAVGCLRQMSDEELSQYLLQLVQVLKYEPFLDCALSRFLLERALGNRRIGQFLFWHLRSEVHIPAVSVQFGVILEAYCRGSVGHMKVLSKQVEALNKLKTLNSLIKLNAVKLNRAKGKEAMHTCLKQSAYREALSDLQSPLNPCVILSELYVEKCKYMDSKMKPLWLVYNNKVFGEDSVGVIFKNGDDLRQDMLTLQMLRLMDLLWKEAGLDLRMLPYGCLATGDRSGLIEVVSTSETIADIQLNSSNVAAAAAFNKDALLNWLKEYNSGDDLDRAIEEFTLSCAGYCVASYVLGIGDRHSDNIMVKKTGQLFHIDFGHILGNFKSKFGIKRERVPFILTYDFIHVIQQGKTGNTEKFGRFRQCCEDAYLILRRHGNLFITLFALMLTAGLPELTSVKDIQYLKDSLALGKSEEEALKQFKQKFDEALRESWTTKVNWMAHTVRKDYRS
Target sequence in this assay (P27986 461-568 partner): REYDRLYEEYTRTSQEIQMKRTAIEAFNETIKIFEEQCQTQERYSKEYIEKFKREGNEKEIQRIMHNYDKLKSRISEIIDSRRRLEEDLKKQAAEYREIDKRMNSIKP
Procedure: Kinase Glo Luminescent Kinase Assay (Kglo) for Pb 3-Kinase Alpha (A), Pb 3-Kinase Beta (B), Vps34 (C), Pb 4-Kinase Beta (D)
The Kinase Glo Luminescent Kinase Assay (Promega, Madison/Wis., USA) is a homogeneous HTS method of measuring kinase activity by quantifying the amount of ATP remaining in solution following a kinase reaction.
L-α-phosphatidylinositol (PI), provided as 10 mg/ml solution in methanol, was transferred into a glass tube and dried under a nitrogen beam. It was then resuspended in 3% OctylGlucoside (1-0-n-octyl-beta-D-glucopyranoside) by vortexing and stored at 4° C. 5 μL of a mix of PI/OctylGlucoside with the PI 3-kinase alpha and PI 3-kinase beta subtypes, or Vps34 or PI 4-kinase beta were added. Kinase reactions were started by the addition of 5 μl of an ATP-mix containing in a final volume 10 μL 10 mM TRIS-HCl pH 7.5, 3 mM MgCl2, 50 mM NaCl, 0.05% CHAPS, 1 mM DTT and 1 μM ATP at room temperature.
All fits were performed with the program XLfit4 (ID Business Solutions, Guildford, UK).

PI 4-kinase beta = PI 4-kinase beta (Homo sapiens, UniProt Q9UBF8); assay: Kinase Glo Luminescent Kinase Assay (Kglo), assay D; assay type: biochemical; conditions: read-out: Assay D PI4Kβ IC50
PI 3-kinase delta [3] = molecular target: T2, PI 3-kinase delta (Homo sapiens, UniProt O00329); assay: TR-FRET Adapta assay, assay F
[4] = system: IL-8-induced neutrophil shape change in human whole blood; assay: Whole blood neutrophil shape change assay (L); assay type: cell-based; conditions: IL-8, human whole blood, read-out: Assay L WBSC IC50
PI 3-kinase beta [5] = molecular target: T1, PI 3-kinase beta; assay: Cellular assay I1, p-Akt (S473) in Rat-1 cells, Surefire format; assay type: cell-based; conditions: non-asterisked data: version I1 (Surefire format), Rat-1 cells; read-out: Assay I PI3Kβ IC50
Target sequence in this assay (P42338 whole entry): as the sequence (P42338 whole entry) above
Target sequence in this assay (Q63787 whole entry partner): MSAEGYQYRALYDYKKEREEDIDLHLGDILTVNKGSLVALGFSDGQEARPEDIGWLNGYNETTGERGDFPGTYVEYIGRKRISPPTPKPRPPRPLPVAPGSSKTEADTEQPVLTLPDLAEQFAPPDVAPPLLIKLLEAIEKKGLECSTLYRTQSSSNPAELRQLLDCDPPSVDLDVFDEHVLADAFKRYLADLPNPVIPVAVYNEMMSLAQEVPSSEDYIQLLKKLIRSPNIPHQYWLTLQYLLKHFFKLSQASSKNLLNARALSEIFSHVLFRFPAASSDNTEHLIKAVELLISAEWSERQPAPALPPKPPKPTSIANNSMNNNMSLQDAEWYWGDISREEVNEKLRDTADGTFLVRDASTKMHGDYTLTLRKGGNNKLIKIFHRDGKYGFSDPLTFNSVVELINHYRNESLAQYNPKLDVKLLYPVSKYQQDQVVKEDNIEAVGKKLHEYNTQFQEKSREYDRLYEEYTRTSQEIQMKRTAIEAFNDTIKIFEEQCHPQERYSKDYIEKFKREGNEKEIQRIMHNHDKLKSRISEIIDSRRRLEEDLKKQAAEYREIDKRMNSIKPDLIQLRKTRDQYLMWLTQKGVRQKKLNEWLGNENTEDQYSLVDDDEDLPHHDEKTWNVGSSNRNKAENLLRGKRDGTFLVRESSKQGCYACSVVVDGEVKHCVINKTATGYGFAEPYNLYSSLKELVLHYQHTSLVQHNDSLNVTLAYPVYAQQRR

PI 3-kinase alpha [6] = molecular target: T3, PI 3-kinase alpha (Homo sapiens, UniProt P42336); assay: Kinase Glo Luminescent Kinase Assay (Kglo), assay A; assay type: biochemical; conditions: read-out: Assay A PI3Kα IC50
Target sequence in this assay (P42336 whole entry): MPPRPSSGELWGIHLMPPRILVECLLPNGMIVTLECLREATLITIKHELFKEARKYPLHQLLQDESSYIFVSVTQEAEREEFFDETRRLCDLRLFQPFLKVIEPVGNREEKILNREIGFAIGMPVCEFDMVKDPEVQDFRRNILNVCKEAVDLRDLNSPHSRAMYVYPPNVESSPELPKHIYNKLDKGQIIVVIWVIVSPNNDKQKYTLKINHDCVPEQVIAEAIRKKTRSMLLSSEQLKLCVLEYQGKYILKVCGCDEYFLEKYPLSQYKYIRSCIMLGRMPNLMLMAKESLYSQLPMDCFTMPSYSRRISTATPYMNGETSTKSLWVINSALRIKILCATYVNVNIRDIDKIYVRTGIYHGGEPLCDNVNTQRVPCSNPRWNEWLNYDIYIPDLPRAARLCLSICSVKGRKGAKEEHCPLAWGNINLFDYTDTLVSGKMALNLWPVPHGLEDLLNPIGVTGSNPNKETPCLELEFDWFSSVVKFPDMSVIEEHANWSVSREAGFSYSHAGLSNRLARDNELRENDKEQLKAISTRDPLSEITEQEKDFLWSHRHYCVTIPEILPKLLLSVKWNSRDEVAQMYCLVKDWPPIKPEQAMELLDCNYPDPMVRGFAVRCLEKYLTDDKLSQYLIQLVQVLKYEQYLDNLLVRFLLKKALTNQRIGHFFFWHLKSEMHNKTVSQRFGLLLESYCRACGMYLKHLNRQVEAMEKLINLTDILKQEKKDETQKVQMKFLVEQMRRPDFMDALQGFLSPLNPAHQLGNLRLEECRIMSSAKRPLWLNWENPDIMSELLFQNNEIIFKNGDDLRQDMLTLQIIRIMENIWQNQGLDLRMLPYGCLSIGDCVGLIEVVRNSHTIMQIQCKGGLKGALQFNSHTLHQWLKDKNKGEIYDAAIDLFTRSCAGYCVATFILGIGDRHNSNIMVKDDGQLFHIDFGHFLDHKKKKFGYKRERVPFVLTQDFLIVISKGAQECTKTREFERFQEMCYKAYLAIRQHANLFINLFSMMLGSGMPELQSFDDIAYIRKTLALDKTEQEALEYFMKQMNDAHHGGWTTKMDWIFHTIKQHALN

Vps34 = Vps34 (Homo sapiens, UniProt Q8NEB9); assay: Kinase Glo Luminescent Kinase Assay (Kglo), assay C; assay type: biochemical; conditions: read-out: Assay C VPS34 IC50
PI 3-kinase delta [7] = molecular target: T2, PI 3-kinase delta; assay: Cellular assay J1, p-Akt (S473) in Rat-1 cells, Surefire format; assay type: cell-based; conditions: non-asterisked data: version J1 (Surefire format), Rat-1 cells; read-out: Assay J PI3Kδ IC50
PI 3-kinase gamma [8] = molecular target: T4, PI 3-kinase gamma (Homo sapiens, UniProt P48736); assay: TR-FRET Adapta assay, assay E; assay type: biochemical; conditions: read-out: Assay E PI3Kγ IC50
PI 3-kinase alpha [9] = molecular target: T3, PI 3-kinase alpha; assay: Cellular assay H1, p-Akt (S473) in Rat-1 cells, Surefire format; assay type: cell-based; conditions: non-asterisked data: version H1 (Surefire format), Rat-1 cells; read-out: Assay H PI3Kα IC50
Target sequence in this assay (P42336 whole entry): as above
Target sequence in this assay (Q63787 whole entry partner): as the sequence (Q63787 whole entry partner) above

mTOR = mTOR (Homo sapiens, UniProt P42345); assay: Lanthascreen kinase binding assay, assay G; conditions: read-out: Assay G mTOR IC50
Procedure: Lanthascreen™ Kinase Binding Assay for mTOR (G)
Binding of an inhibitor to the kinase competes for binding with the tracer, resulting in a loss of FRET.
50 nL of compound dilutions were dispensed onto white 384-well small volume polystyrene plate.

PI 3-kinase gamma [10] = molecular target: T4, PI 3-kinase gamma; assay: Cellular U937 AKT assay K1 (MSD); assay type: cell-based; conditions: U937 cells, K1 format; read-out: Assay K1 PI3Kγ IC50

PI 4-kinase beta, sequence (Q9UBF8 whole entry): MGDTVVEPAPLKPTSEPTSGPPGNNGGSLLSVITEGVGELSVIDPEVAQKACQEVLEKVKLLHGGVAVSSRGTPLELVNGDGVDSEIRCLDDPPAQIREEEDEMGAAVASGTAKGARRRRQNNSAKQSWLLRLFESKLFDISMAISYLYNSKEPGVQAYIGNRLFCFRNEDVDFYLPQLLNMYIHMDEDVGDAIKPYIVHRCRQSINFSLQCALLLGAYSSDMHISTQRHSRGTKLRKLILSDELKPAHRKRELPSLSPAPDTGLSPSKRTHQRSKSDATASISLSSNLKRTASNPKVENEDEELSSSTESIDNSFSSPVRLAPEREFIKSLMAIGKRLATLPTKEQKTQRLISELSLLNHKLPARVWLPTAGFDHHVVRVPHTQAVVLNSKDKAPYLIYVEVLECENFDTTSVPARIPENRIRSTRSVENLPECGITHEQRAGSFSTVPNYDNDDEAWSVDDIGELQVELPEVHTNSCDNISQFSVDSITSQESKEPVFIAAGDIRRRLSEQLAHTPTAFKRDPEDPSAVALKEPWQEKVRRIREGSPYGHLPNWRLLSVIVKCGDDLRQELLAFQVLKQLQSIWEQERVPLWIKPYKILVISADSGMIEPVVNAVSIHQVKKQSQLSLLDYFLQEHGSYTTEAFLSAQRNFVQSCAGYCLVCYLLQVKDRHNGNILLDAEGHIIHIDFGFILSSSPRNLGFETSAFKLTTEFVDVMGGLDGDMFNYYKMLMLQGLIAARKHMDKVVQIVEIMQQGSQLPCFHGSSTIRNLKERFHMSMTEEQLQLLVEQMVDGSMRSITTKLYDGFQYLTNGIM
T4 sequence (P48736 whole entry): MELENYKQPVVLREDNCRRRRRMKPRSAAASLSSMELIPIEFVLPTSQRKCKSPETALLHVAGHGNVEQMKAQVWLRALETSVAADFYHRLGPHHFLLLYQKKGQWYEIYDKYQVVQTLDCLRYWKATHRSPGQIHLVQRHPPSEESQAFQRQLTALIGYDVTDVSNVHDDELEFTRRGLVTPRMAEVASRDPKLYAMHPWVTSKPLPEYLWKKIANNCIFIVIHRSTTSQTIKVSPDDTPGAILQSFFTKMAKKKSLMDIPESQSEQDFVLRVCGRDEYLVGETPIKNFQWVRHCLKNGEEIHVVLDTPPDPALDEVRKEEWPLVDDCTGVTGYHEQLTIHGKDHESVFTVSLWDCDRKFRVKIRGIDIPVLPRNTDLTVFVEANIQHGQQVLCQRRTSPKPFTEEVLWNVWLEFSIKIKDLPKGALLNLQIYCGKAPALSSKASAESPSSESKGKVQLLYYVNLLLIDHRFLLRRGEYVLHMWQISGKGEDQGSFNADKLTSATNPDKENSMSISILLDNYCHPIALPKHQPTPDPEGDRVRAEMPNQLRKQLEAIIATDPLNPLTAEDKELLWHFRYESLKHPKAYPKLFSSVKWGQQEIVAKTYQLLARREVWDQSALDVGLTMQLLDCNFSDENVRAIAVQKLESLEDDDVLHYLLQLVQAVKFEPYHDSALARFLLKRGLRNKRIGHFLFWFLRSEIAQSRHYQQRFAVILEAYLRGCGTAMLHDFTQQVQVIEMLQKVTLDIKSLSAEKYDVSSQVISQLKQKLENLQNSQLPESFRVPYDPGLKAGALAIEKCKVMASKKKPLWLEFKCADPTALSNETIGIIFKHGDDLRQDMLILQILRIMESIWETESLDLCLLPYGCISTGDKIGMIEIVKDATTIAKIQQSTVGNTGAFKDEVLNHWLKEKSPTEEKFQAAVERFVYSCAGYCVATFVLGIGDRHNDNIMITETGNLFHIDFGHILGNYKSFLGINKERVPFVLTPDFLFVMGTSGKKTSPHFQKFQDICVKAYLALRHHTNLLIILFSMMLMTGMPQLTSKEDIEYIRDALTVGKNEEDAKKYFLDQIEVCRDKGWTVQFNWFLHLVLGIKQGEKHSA

SMILES: Cc1cn(-c2nc(-c3cc(S(=O)(=O)N[C@H]4CC[C@H](O)CC4)ccc3C)cnc2N)cn1 [Example 56, Trans-3-(5-Amino-6-(4-methyl-1H-imidazol-1-yl)pyrazin-2-yl)-N-(-4-hydroxycyclohexyl)-4-methylbenzenesulfonamide]
- Assay M RLM CI(int) [1]: 24 µL/min/mg
- IC50 (PI 3-kinase beta [2]): 1.75 µM
- IC50 (PI 4-kinase beta): 7.27 µM
- IC50 (PI 3-kinase delta [3]; read-out: Assay F PI3Kδ IC50): 0.08 µM
- IC50 ([4]; Homo sapiens, Neutrophil): 0.211 µM
- IC50 (PI 3-kinase beta [5]): 5.88 µM
- IC50 (PI 3-kinase alpha [6]): 0.29 µM
- IC50 (Vps34): 3.52 µM
- IC50 (PI 3-kinase delta [7]): 3.12 µM
- IC50 (PI 3-kinase gamma [8]): 0.019 µM
- IC50 (PI 3-kinase alpha [9]): 4.4 µM
- IC50 (mTOR): 2.38 µM
- IC50 (PI 3-kinase gamma [10]): 0.129 µM

SMILES: Cc1cn(-c2nc(-c3cc(S(=O)(=O)NCCCO)ccc3C)cnc2N)cn1 [Example 57, 3-(5-Amino-6-(4-methyl-1H-imidazol-1-yl)pyrazin-2-yl)-N-(3-hydroxypropyl)-4-methylbenzenesulfonamide]
- Assay M RLM CI(int) [1]: 17 µL/min/mg
- IC50 (PI 3-kinase beta [2]): 6.48 µM
- IC50 (PI 4-kinase beta): > 9.1 µM
- IC50 (PI 3-kinase delta [3]; read-out: Assay F PI3Kδ IC50): 0.58 µM
- IC50 ([4]; Homo sapiens, Neutrophil): 1.27 µM
- IC50 (PI 3-kinase beta [5]): > 10 µM
- IC50 (PI 3-kinase alpha [6]): 0.32 µM
- IC50 (Vps34): > 9.1 µM
- IC50 (PI 3-kinase delta [7]): > 10 µM
- IC50 (PI 3-kinase gamma [8]): 0.057 µM
- IC50 (PI 3-kinase alpha [9]): > 10 µM
- IC50 (mTOR): > 9.1 µM
- IC50 (PI 3-kinase gamma [10]): 0.329 µM

SMILES: Cc1ccc(S(=O)(=O)NCCC(C)(C)O)cc1-c1cnc(N)c(-n2cncn2)n1 [Example 64, 3-(5-Amino-6-(1H-1,2,4-triazol-1-yl)pyrazin-2-yl)-N-(3-hydroxy-3-methylbutyl)-4-methylbenzenesulfonamide]
- Assay M RLM CI(int) [1]: 61 µL/min/mg
- IC50 (PI 3-kinase beta [2]): 3.85 µM
- IC50 (PI 4-kinase beta): 6.61 µM
- IC50 (PI 3-kinase delta [3]; read-out: Assay F PI3Kδ IC50): 0.25 µM
- IC50 ([4]; Homo sapiens, Neutrophil): 0.543 µM
- IC50 (PI 3-kinase beta [5]): 4.37 µM
- IC50 (PI 3-kinase alpha [6]): 0.37 µM
- IC50 (Vps34): 8.49 µM
- IC50 (PI 3-kinase delta [7]): 1.19 µM
- IC50 (PI 3-kinase gamma [8]): 0.046 µM
- IC50 (PI 3-kinase alpha [9]): 1.24 µM
- IC50 (mTOR): > 9.1 µM
- IC50 (PI 3-kinase gamma [10]): 0.189 µM

SMILES: Cc1ncn(-c2nc(-c3cc(S(=O)(=O)NCCC(C)(C)O)ccc3C)cnc2N)n1 [Example 65, 3-(5-Amino-6-(3-methyl-1H-1,2,4-triazol-1-yl)pyrazin-2-yl)-N-(3-hydroxy-3-methylbutyl)-4-methylbenzenesulfonamide]
- Assay M RLM CI(int) [1]: 87 µL/min/mg
- IC50 (PI 3-kinase beta [2]): 4.03 µM
- IC50 (PI 4-kinase beta): > 9.1 µM
- IC50 (PI 3-kinase delta [3]; read-out: Assay F PI3Kδ IC50): 0.24 µM
- IC50 ([4]; Homo sapiens, Neutrophil): 0.802 µM
- IC50 (PI 3-kinase beta [5]): > 10 µM
- IC50 (PI 3-kinase alpha [6]): 0.44 µM
- IC50 (Vps34): > 9.1 µM
- IC50 (PI 3-kinase delta [7]): 1.44 µM
- IC50 (PI 3-kinase gamma [8]): 0.022 µM
- IC50 (PI 3-kinase alpha [9]): 1.45 µM
- IC50 (mTOR): > 9.1 µM
- IC50 (PI 3-kinase gamma [10]): 0.155 µM

SMILES: Cc1ccc(S(=O)(=O)NC2CC3(CC(O)C3)C2)cc1-c1cnc(N)c(-n2cncn2)n1 (centres unmarked) [Example 67, 3-(5-Amino-6-(1H-1,2,4-triazol-1-yl)pyrazin-2-yl)-N-(6-hydroxyspiro[3.3]heptan-2-yl)-4-methylbenzenesulfonamide]
- Assay M RLM CI(int) [1]: 36 µL/min/mg
- IC50 (PI 3-kinase beta [2]): 0.86 µM
- IC50 (PI 4-kinase beta): 7.4 µM
- IC50 (PI 3-kinase delta [3]; read-out: Assay F PI3Kδ IC50): 0.16 µM
- IC50 ([4]; Homo sapiens, Neutrophil): 0.249 µM
- IC50 (PI 3-kinase beta [5]): 2.93 µM
- IC50 (PI 3-kinase alpha [6]): 0.09 µM
- IC50 (Vps34): 1.8 µM
- IC50 (PI 3-kinase delta [7]): 0.92 µM
- IC50 (PI 3-kinase gamma [8]): 0.003 µM
- IC50 (PI 3-kinase alpha [9]): 1.33 µM
- IC50 (mTOR): 2.2 µM
- IC50 (PI 3-kinase gamma [10]): 0.068 µM

SMILES: Cc1ccc(S(=O)(=O)N[C@H]2CC[C@](C)(O)CC2)cc1-c1cnc(N)c(-n2cncn2)n1 [Example 69a, 3-(5-amino-6-(1H-1,2,4-triazol-1-yl)pyrazin-2-yl)-N-((1r,4r)-4-hydroxy-4-methylcyclohexyl)-4-methylbenzenesulfonamide]
- Assay M RLM CI(int) [1]: 49 µL/min/mg
- IC50 (PI 3-kinase beta [2]): 3.5 µM
- IC50 (PI 4-kinase beta): > 10 µM
- IC50 (PI 3-kinase delta [3]; Assay F PI3Kδ IC50 (μM)): 0.53 µM
- IC50 ([4]; Homo sapiens, Neutrophil): 1.15 µM
- IC50 (PI 3-kinase beta [5]): 4.42 µM
- IC50 (PI 3-kinase alpha [6]): 0.39 µM
- IC50 (Vps34): > 10 µM
- IC50 (PI 3-kinase delta [7]): 2.66 µM
- IC50 (PI 3-kinase gamma [8]): 0.038 µM
- IC50 (PI 3-kinase alpha [9]): 3.3 µM
- IC50 (mTOR): 9.2 µM
- IC50 (PI 3-kinase gamma [10]): 0.103 µM

SMILES: Cc1ccc(S(=O)(=O)N[C@H]2CC[C@@](C)(O)CC2)cc1-c1cnc(N)c(-n2cncn2)n1 [Example 69b, 3-(5-amino-6-(1H-1,2,4-triazol-1-yl)pyrazin-2-yl)-N-(cis-4-hydroxy-4-methylcyclohexyl)-4-methylbenzenesulfonamide]
- Assay M RLM CI(int) [1]: 227 µL/min/mg
- IC50 (PI 3-kinase beta [2]): 1.4 µM
- IC50 (PI 4-kinase beta): > 10 µM
- IC50 (PI 3-kinase delta [3]; read-out: Assay F PI3Kδ IC50): 0.69 µM
- IC50 [4]: 1.95 µM
- IC50 (PI 3-kinase beta [5]): 8.47 µM
- IC50 (PI 3-kinase alpha [6]): 0.39 µM
- IC50 (Vps34): > 10 µM
- IC50 (PI 3-kinase delta [7]): 5.18 µM
- IC50 (PI 3-kinase gamma [8]): 0.057 µM
- IC50 (PI 3-kinase alpha [9]): 6.68 µM
- IC50 (mTOR): 9.6 µM
- IC50 (PI 3-kinase gamma [10]): 0.135 µM

SMILES: Cc1ccc(S(=O)(=O)NC[C@H]2C[C@@H](O)C2)cc1-c1cnc(N)c(-n2cncn2)n1 [Example 72, 3-(5-Amino-6-(1H-1,2,4-triazol-1-yl)pyrazin-2-yl)-N-(((1s,3s)-3-hydroxycyclobutyl)methyl)-4-methylbenzenesulfonamide]
- Assay M RLM CI(int) [1]: 41 µL/min/mg
- IC50 (PI 3-kinase beta [2]): 2.67 µM
- IC50 (PI 4-kinase beta): > 9.1 µM
- IC50 (PI 3-kinase delta [3]; read-out: Assay F PI3Kδ IC50): 0.39 µM
- IC50 ([4]; Homo sapiens, Neutrophil): 0.723 µM
- IC50 (PI 3-kinase beta [5]): 6.03 µM
- IC50 (PI 3-kinase alpha [6]): 0.58 µM
- IC50 (Vps34): > 9.1 µM
- IC50 (PI 3-kinase delta [7]): 2.64 µM
- IC50 (PI 3-kinase gamma [8]): 0.034 µM
- IC50 (PI 3-kinase alpha [9]): 3.11 µM
- IC50 (mTOR): > 9.1 µM
- IC50 (PI 3-kinase gamma [10]): 0.293 µM

SMILES: Cc1ccc(S(=O)(=O)NCC(C)(C)CO)cc1-c1cnc(N)c(-n2cncn2)n1 [Example 73, 3-(5-Amino-6-(1H-1,2,4-triazol-1-yl)pyrazin-2-yl)-N-(3-hydroxy-2,2-dimethylpropyl)-4-methylbenzenesulfonamide]
- Assay M RLM CI(int) [1]: 64 µL/min/mg
- IC50 (PI 3-kinase beta [2]): 1.83 µM
- IC50 (PI 4-kinase beta): > 9.1 µM
- IC50 (PI 3-kinase delta [3]; read-out: Assay F PI3Kδ IC50): 0.39 µM
- IC50 ([4]; Homo sapiens, Neutrophil): 0.803 µM
- IC50 (PI 3-kinase beta [5]): 5.38 µM
- IC50 (PI 3-kinase alpha [6]): 0.35 µM
- IC50 (Vps34): > 9.1 µM
- IC50 (PI 3-kinase delta [7]): 2 µM
- IC50 (PI 3-kinase gamma [8]): 0.015 µM
- IC50 (PI 3-kinase alpha [9]): 2.26 µM
- IC50 (mTOR): > 9.1 µM
- IC50 (PI 3-kinase gamma [10]): 0.177 µM

SMILES: Cc1ccc(S(=O)(=O)N[C@H]2CC[C@H](O)CC2)cc1-c1cnc(N)c(-n2cccn2)n1 [Example 103, 3-(5-Amino-6-(1H-pyrazol-1-yl)pyrazin-2-yl)-N-((1r,4r)-4-hydroxycyclohexyl)-4-methylbenzenesulfonamide]
- Assay M RLM CI(int) [1]: 29 µL/min/mg
- IC50 (PI 3-kinase beta [2]): 1.88 µM
- IC50 (PI 4-kinase beta): 2.74 µM
- IC50 (PI 3-kinase delta [3]; read-out: Assay F PI3Kδ IC50): 0.15 µM
- IC50 ([4]; Homo sapiens, Neutrophil): 0.515 µM
- IC50 (PI 3-kinase beta [5]): 3.25 µM
- IC50 (PI 3-kinase alpha [6]): 0.39 µM
- IC50 (Vps34): > 9.1 µM
- IC50 (PI 3-kinase delta [7]): 0.85 µM
- IC50 (PI 3-kinase gamma [8]): 0.013 µM
- IC50 (PI 3-kinase alpha [9]): 2.25 µM
- IC50 (mTOR): > 9.1 µM
- IC50 (PI 3-kinase gamma [10]): 0.028 µM

SMILES: Cc1cnn(-c2nc(-c3cc(S(=O)(=O)N[C@H]4CC[C@H](O)CC4)ccc3C)cnc2N)c1 [Example 111, 3-(5-Amino-6-(4-methyl-1H-pyrazol-1-yl)pyrazin-2-yl)-N-((1r,4r)-4-hydroxycyclohexyl)-4-methylbenzenesulfonamide]
- Assay M RLM CI(int) [1]: 74 µL/min/mg
- IC50 (PI 3-kinase beta [2]): 1.98 µM
- IC50 (PI 4-kinase beta): 1.96 µM
- IC50 (PI 3-kinase delta [3]; read-out: Assay F PI3Kδ IC50): 0.06 µM
- IC50 ([4]; Homo sapiens, Neutrophil): 0.637 µM
- IC50 (PI 3-kinase beta [5]): > 10 µM
- IC50 (PI 3-kinase alpha [6]): 0.18 µM
- IC50 (Vps34): > 9.1 µM
- IC50 (PI 3-kinase delta [7]): 0.46 µM
- IC50 (PI 3-kinase gamma [8]): 0.018 µM
- IC50 (PI 3-kinase alpha [9]): 1.47 µM
- IC50 (mTOR): > 9.1 µM
- IC50 (PI 3-kinase gamma [10]): 0.02 µM
